Experimental data from patent US20180125993A1 (BEIJING COTIMES BIOTECH COMPANY LIMITED, priority 2014, published 2018).
Marks after values point to notes of the source that are not given here.

Legend:
[1] = tested on: colon cancer, CS146, 2#; experiment: Patients primary tumor tissue subcutaneous model (Day 30 after treatment); type: in vivo, nude mice; details: 5-Fu 50 mg/kg i.p. QW × 6w alone
From the text: (§1) Fresh primary tumor tissues from patients were implanted in NOD/SCID mice's flank, which developed into a primary tumor, which was then transferred to the nude mice's flank to allow the tumor reaching an exponential growth phase, and the tumor was named 1# tumor, and so on. When the tumor volume and number reached passage requirements, they were implanted into the right flank of nude mice. When the tumors' average volumes reached 100-200 mm^3, the mice were grouped.
(§2) The bodyweight and major/minor axis of mice were measured twice a week, and Tumor Growth Inhibition (TGI) and tumor volume were calculated same as in 5.1.5. In addition, to evaluate the synergetic effect of drug combination in tumor growth, Jin Zhengjun Q value judgment method was used with the follow formula: Q=Ea+b/(Ea+Eb−Ea×Eb). Ea+b is the inhibition ratio of drug combination, Ea and Eb are the inhibition ratio of each of drug treatment when it is administered alone. […] The animals were monitored, and when the experiments were concluded, mice were sacrificed and tumors were extracted and weighted. All the animal experiments confer to the regulations of animal's welfare and the management of experimental animal usage.
Tumor volumes were represented with average±standard error. Data analysis was done using Spss16.0, One-Way ANOVA, LSD (homogeneity of variance) or Dunnett T3 (non-homogeneity of variance). […]

[2] = tested on: lung cancer, CS225, 1#; experiment: Patients primary tumor tissue subcutaneous model (Day 37 after treatment); type: in vivo, nude mice; details: cisplatin 5 mg/kg i.p. QW × 2w
From the text: as §1, §2
(§3) Tumor volumes were represented with average±standard error. Data analysis was done using Spss16.0, One-Way ANOVA, LSD (homogeneity of variance) or Dunnett T3 (non-homogeneity of variance). […] P<0.05 represents significant difference.

[3] = tested on: MIA-PaCa-2; experiment: Human pancreatic cancer MIA-PaCa-2 subcutaneous model (34 days of treatment); details: for Tumor regression: treatment groups
[4] = tested on: Colo205; experiment: Human colon cancer Colo205 subcutaneous model (Day 28 after treatment); type: in vivo, nude mice
Description: (§4) Tumor cells (i.e., MIA-PaCa-2, WiDr, H2122, colo205) were inoculated in nude mice's flank at 5×10^6 cells per mouse. The mice were grouped when the average volume of tumors reached about 100˜200 mm^3. “QW”=weekly dose. “Q3d”=dosed every third day. “BiW”=biweekly.
(§5) The bodyweight and major/minor axis of the mice were measured twice a week, and the tumor volumes were calculated using the formula: Tumor volume=1/2×major axis[…]. […] “T” represents average tumor volume of the experimental group (cm^3), and “C” represents average tumor volume of the control group (cm^3). The animals were monitored at all times. The bodyweight and major/minor axis or mice were measured twice a week.
(§6) Tumor volumes were represented with average±standard error. […] P<0.05 represents significant difference.

[5] = tested on: WiDr; experiment: Human colon cancer Widr subcutaneous model (Day 27 after treatment); type: in vivo, nude mice
Description: as §4, §5, §6

[6] = tested on: colon cancer, CS263, 1#; experiment: Patients primary tumor tissue subcutaneous model (Day 35 after treatment); type: in vivo, nude mice
From the text: as §1, §2, §3

[7] = tested on: colon cancer, CS182, 5#; experiment: Patients primary tumor tissue subcutaneous model (Day 27 after treatment); type: in vivo, nude mice; details: Irinotecan 50 mg/kg i.v. BiW × 6 times
From the text: as §1, §2, §3

[8] = tested on: H2122; experiment: Human lung cancer H2122 subcutaneous model (Day 38 after treatment); details: for Tumor regression: treatment groups
[9] = biological target: T1, DR4-His-EC (Lot: 090222-P, E coli.) (human, UniProt O00220 24-239, limits assumed); experiment: CLEIA, antigen coated on microplate, HRP secondary antibody
T1 construct: it may mean extracellular or E. coli; also called TRAIL-R1; not shown: His tag
T1 sequence (looked up): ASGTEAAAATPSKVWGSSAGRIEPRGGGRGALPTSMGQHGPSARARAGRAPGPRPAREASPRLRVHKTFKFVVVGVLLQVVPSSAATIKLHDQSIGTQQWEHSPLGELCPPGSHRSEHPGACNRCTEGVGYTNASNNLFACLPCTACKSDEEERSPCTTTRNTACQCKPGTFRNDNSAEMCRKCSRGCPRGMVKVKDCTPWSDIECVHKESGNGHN

[10] = biological target: T2, DcR2-His (recombinant human TRAIL R4/TNFRSF10D, Sino Biological) (human, UniProt Q9UBN6 56-211, limits assumed); experiment: as above
T2 construct: Commercial protein; not shown: His tag
T2 sequence (looked up): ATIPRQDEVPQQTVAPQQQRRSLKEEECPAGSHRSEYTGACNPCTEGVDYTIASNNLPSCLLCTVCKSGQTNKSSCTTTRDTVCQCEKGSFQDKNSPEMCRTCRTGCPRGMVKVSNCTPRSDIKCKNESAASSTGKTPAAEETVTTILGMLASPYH

[11] = biological target: T3, OPG-His (recombinant human osteroprotegerin/TNFRSF11B, Wuxi Pharmatech) (human, UniProt O00300 22-401, limits assumed); experiment: as above
T3 construct: Commercial protein; also called osteoprotegerin; not shown: His tag
T3 sequence (looked up): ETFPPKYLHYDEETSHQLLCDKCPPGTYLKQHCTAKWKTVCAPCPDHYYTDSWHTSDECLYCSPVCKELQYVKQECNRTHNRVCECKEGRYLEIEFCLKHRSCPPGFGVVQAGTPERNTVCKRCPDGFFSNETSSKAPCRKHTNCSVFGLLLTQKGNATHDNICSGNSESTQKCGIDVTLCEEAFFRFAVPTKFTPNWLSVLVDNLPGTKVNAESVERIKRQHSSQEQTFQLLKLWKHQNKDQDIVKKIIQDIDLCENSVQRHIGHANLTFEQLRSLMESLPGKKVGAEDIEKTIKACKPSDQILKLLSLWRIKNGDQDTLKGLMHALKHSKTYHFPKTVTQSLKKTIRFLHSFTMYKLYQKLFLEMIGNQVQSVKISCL

[12] = biological target: T4, DcR1-His (recombinant human TRAIL R3/TNFRSF10C, Novoprotein Science) (human, UniProt O14798 26-221, limits assumed); experiment: as above
T4 construct: Commercial protein; not shown: His tag
T4 sequence (looked up): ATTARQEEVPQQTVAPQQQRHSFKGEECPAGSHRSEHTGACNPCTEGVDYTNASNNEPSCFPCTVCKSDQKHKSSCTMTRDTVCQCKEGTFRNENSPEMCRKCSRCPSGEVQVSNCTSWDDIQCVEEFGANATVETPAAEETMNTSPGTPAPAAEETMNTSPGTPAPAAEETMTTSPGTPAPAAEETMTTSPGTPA

[13] = Gemcitabine 60 mg/kg i.p. Q3d × 6W
[14] = Gemcitabine 60 mg/kg i.p. Q3d × 6W, listed as gemcitabine
[15] = repeated experiment, gemcitabine group
[16] = Irinotecan 50 mg/kg i.v. BiW × 6 times
[17] = repeated experiment, Irinotecan group
[18] = repeated experiment, Taxol group

O=c1[nH]cc(F)c(=O)[nH]1 [5-Fu, 5-fluorouracil, reference compound]
TGI (calculated using the tumor volumes of Day 30) [1]: 37.95%

N.N.[Cl][Pt][Cl] [Cisplatin, cisplatin, reference compound]
T/C % (Calculated using tumor volumes) [2]: 72.14% | TGI (Calculated using tumor volumes) [2]: 31.45% | TGI (Calculated using tumor weight) [2]: 32.66% | Time of tumor volume changed significantly [2]: 7 | Tumor Volume Mean ± SEM [2]: 0.73 ± 0.06 cm^3 | Tumor weight Mean ± SEM [2]: 0.48 ± 0.08 g | TGI (Calculated using tumor volumes) ([2]; listed as cisplatin): 31.45% | TGI (Calculated using tumor weight) ([2]; listed as cisplatin): 32.66%

Nc1ccn([C@@H]2O[C@H](CO)[C@@H](O)C2(F)F)c(=O)n1 [Gemcitabine, reference compound]
TGI (Calculated using tumor volumes) [3, 13]: 52.60%** | TGI (Calculated using tumor weight) [3, 13]: 55.66%* | Time of tumor volume changed significantly [3, 13]: 10 days after first treatment | Tumor Volume Mean ± SEM [3, 13]: 1.60 ± 0.11 cm^3 | Tumor weight Mean ± SEM [3, 13]: 0.84 ± 0.07 g | TGI (Calculated using tumor volumes) [3, 14]: 52.60% | TGI (Calculated using tumor weight) [3, 14]: 55.66% | Tumor regression ([3]; first experiment): not found in the chemotherapy group | Tumor regression ([3]; repeated experiment): not found in the chemotherapy group alone | TGI calculated based on the tumor volume [3, 15]: 34.33% | TGI calculated based on the tumor weight [3, 15]: 31.30% | Bodyweights of mice ([3]; treatment groups over the time): decreased significantly by the third dosing

CCc1c2c(nc3ccc(OC(=O)N4CCC(N5CCCCC5)CC4)cc13)-c1cc3c(c(=O)n1C2)COC(=O)[C@]3(O)CC [Irinotecan, reference compound]
Tumor weight Mean ± SEM [4, 16]: 0.11 ± 0.02 g | Tumor regression ([4]; first experiment, treatment groups): none was found | TGI calculated using the tumor weights [4, 17]: 93.76% | Tumor weight Mean ± SEM [5, 16]: 0.26 ± 0.04 g | TGI (Calculated using tumor weight) [5, 17]: 72.30% | TGI (Calculated using tumor weight) [6, 16]: 99.58%* | Tumor weight Mean ± SEM [6, 16]: 0.003 ± 0.002 g | TGI (Calculated using tumor weight) ([6]; Irinotecan 50 mg/kg i.v. BiW × 6 times, listed as irinotecan): 99.58% | Animals showing tumor regression ([6]; combination: Day 24 and Day 31, irinotecan: Day 35): one animal | TGI (Calculated using tumor weight) [7]: 93.46%* | Tumor weight Mean ± SEM [7]: 0.04 ± 0.00 g | TGI (Calculated using tumor weight) ([7]; listed as irinotecan): 93.46%

CC(=O)O[C@H]1C(=O)[C@@]2(C)[C@H]([C@H](OC(=O)c3ccccc3)[C@]3(O)C[C@H](OC(=O)[C@H](O)[C@@H](NC(=O)c4ccccc4)c4ccccc4)C(C)=C1C3(C)C)[C@]1(OC(C)=O)CO[C@@H]1C[C@@H]2O [Taxol, reference compound]
T/C % (Calculated using tumor volumes) ([8]; Taxol 24 mg/kg i.p. Q6d × 6W): 55.33% | TGI (Calculated using tumor weight) ([8]; Taxol 24 mg/kg i.p. Q6d × 6W): 47.18% | Time of tumor volume changed significantly ([8]; Taxol 24 mg/kg i.p. Q6d × 6W): 11 | Tumor Volume Mean ± SEM ([8]; Taxol 24 mg/kg i.p. Q6d × 6W): 1.08 ± 0.12 cm^3 | Tumor weight Mean ± SEM ([8]; Taxol 24 mg/kg i.p. Q6d × 6W): 0.87 ± 0.12 g | Bodyweights ([8]; Taxol group, HuCTB006 0.2 mg/kg group): decreased, but were maintained at an acceptable level | Tumor regression ([8]; first experiment): none was observed | Tumor regression ([8]; repeated experiment): none was observed | TGI (Calculated using tumor volume) [8, 18]: 54.28% | TGI (Calculated using tumor weight) [8, 18]: 50.44%

B1: HuCTB006, human chimeric anti-TRAIL-R2 (DR5) monoclonal antibody (antibody, human IgG1, V domains shown)
VH: EVQLQQSGPELVKPGASVRMSCKASGYTFTSYFIHWVKQRPGQGLEWIGWIYPGNVNTKYSEKFKGKATLTADKSSSTAYMQFSSLTSEDSAVYFCARGEAGYFDYWGQGTTLTVSS
VL: DIVMTQSHKFMSTSVGDRVSITCKASQDVSTAVAWYQQKPGQSPRLLIYWASTRHTGVPDRFTGSGSGTDYTLTISSVQAEDQALYYCQQHYRTPWTFGGGTKLEIKR
notes: also called human CTB006
binding result [9]: no binding (tested: 200, 40 and 8 ng/mL) | binding result [10]: no binding (tested: 200, 40 and 8 ng/mL) | binding result [11]: no binding (tested: 200, 40 and 8 ng/mL) | binding result [12]: no binding (tested: 200, 40 and 8 ng/mL)
